Values of other authors, collected in patent publication US9694080B2, “Polymer release system” (EGALET LTD., priority 2001, dated 2017).

Columns and labels:
[1] = tested on: α-adrenoceptor
[2] = tested on: β1 and β2

Row | dose linearity range (literature) [mg] | absorption in the large intestine, share of the total absorption (timed-release capsules, Nolte et al) | Compound | α effect relative to S(−) [1] | beta effect relative to S(−) [2]
1 | 6.25 to 50 | approximately 10% | COc1ccccc1OCCNCC(O)COc1cccc2[nH]c3ccccc3c12 (stereo not shown) [Carvedilol] | – | –
2 | – | – | COc1ccccc1OCCNC[C@@H](O)COc1cccc2[nH]c3ccccc3c12 [R(+)] | the same α effect | 1/100
